How the values were obtained:
[1] = target: T1, Polyunsaturated fatty acid 5-lipoxygenase (Homo sapiens, UniProt P09917); assay: In vitro inhibition of LTB4 biosynthesis in [Ca(2+)]-ionophore-activated human polymorphonuclear leukocytes; assay type: functional
T1 sequence (P09917 whole entry): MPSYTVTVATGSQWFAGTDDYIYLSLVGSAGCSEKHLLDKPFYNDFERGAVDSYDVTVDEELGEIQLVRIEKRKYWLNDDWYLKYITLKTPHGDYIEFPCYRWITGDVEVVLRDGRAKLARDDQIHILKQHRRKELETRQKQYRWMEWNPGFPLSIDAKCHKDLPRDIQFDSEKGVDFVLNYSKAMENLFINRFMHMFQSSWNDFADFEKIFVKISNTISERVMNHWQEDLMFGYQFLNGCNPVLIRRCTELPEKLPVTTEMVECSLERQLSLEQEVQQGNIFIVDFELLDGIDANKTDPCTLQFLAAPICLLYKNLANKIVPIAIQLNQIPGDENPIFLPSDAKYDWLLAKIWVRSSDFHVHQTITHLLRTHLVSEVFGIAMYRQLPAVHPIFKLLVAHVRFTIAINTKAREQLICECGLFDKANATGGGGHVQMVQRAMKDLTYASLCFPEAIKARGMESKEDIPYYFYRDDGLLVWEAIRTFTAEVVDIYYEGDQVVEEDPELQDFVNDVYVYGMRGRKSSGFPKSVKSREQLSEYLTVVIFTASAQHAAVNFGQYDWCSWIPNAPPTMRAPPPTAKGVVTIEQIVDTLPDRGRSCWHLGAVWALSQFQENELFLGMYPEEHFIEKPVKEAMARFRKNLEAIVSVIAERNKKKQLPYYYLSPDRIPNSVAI

[2] = target: T2, Polyunsaturated fatty acid 5-lipoxygenase (Rattus norvegicus, UniProt P12527); assay: In vitro test for inhibition of 5-lipoxygenase in cell-free preparations from rat PMN leukocytes
T2 sequence (P12527 whole entry): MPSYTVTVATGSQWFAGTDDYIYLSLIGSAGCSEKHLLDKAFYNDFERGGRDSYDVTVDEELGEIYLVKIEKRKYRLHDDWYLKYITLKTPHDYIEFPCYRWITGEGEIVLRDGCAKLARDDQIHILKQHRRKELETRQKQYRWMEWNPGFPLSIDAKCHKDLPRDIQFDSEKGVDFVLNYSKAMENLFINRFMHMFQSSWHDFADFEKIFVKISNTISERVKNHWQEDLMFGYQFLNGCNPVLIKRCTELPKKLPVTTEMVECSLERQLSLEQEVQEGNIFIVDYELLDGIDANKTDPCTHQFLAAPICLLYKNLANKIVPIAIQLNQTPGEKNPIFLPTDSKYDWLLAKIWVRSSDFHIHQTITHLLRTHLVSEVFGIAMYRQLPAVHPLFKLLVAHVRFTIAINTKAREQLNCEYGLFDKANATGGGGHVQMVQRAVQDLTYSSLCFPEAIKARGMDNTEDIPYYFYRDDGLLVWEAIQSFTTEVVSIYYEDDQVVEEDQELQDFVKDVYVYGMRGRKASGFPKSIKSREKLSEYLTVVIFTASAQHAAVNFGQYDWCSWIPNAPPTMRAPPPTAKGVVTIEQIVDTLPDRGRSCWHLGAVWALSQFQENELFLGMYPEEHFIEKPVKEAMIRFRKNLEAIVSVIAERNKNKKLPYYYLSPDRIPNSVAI

Homo sapiens [3] = species on record: Homo sapiens; assay: Tested in vitro for the inhibition of LTB4 biosynthesis in [Ca(2+)]-ionophore-activated human polymorphonuclear leukocytes; (Result of a single titration); assay type: functional
Homo sapiens [4] = species on record: Homo sapiens; assay: Tested in vitro for the inhibition of LTB4 biosynthesis in [Ca(2+)]-ionophore-activated human polymorphonuclear leukocytes (Result of a single titration); assay type: functional
[5] = target: T3, Polyunsaturated fatty acid 5-lipoxygenase (Rattus norvegicus) (UniProt P12527); assay: Tested in vitro for the inhibition of 5-lipoxygenase in cell-free preparations from rat PMN leukocytes; conditions: concentration not given here
T3 sequence (whole entry): T2 sequence (P12527 whole entry)

[6] = target: T4, Arachidonate 5-lipoxygenase-activating protein (Homo sapiens, UniProt P20292); assay: Tested for inhibition of leukotriene biosynthesis by binding to 5-lipoxygenase activating protein
T4 sequence (P20292 whole entry): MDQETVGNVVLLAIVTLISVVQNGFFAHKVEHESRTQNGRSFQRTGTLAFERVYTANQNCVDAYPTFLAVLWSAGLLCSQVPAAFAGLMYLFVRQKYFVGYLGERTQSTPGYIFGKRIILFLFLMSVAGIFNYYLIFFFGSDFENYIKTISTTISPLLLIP

CCCCn1c(CC(C)(C)C(=O)O)c2c3c(c(OCc4ccc(-c5ccccc5)cn4)ccc31)CC(C)S2 (configuration not stated)
IC50 [1]: 95 nM
IC50 [2]: 130 nM

C[C@@H]1Cc2c(OCc3ccc(-c4ccccc4)cn3)ccc3c2c(c(CC(C)(C)C(=O)O)n3Cc2ccc(Cl)cc2)[S+]1[O-] (some centres not stated)
IC50 [1]: 830 nM
IC50 [2]: 330 nM

CC1Cc2c(OCc3ccc(-c4ccccc4)cn3)ccc3c2c(c(CC(C)(C)CC(=O)NS(=O)(=O)C(F)(F)F)n3Cc2ccc(Cl)cc2)S1 (configuration not stated)
IC50 [1]: 125 nM
IC50 [2]: 67 nM

CC1Cc2c(OCc3ccc(-c4ccccc4)cn3)ccc3c2c(c(CC(C)(C)CC(=O)N(C)O)n3Cc2ccc(Cl)cc2)S1 (configuration not stated)
IC50 (Homo sapiens [3]): 500 nM

CC1Cc2c(OCCc3ccc(-c4ccccc4)cn3)ccc3c2c(c(CC(C)(C)Cc2nnn[nH]2)n3Cc2ccc(Cl)cc2)S1 (configuration not stated)
IC50 [1]: 46 nM
IC50 [2]: 1200 nM

CC1Cc2c(OCc3ccc(C(=O)O)cn3)ccc3c2c(c(CC(C)(C)C(=O)O)n3Cc2ccc(Cl)cc2)S1 (configuration not stated)
IC50 (Homo sapiens [4]): > 2000 nM
IC50 [2]: > 2000 nM

CC1Cc2c(OCc3cccc(-c4ccccc4)n3)ccc3c2c(c(CC(C)(C)C(=O)O)n3Cc2ccc(Cl)cc2)S1 (configuration not stated)
IC50 [1]: 27 nM
IC50 [2]: 2500 nM

CSc1c(CC(C)(C)C(=O)O)n(Cc2ccc(Cl)cc2)c2ccc(OCc3ccc(-c4ccccc4)cn3)cc12
IC50 [1]: 170 nM
IC50 [2]: 600 nM

CC1Cc2c(OCc3ccc(-c4ccccc4)cn3)ccc3c2c(c(CCC(=O)O)n3Cc2ccc(Cl)cc2)S1 (configuration not stated)
IC50 [1]: 38 nM
IC50 [2]: 140 nM

CCCCc1ccc(COc2ccc3c4c2CC(C)Sc4c(CC(C)(C)C(=O)O)n3Cc2ccc(Cl)cc2)nc1 (configuration not stated)
IC50 [1]: 42 nM
IC50 [2]: 500 nM

CC1Cc2c(OCc3ccc(-c4ccccc4)cn3)ccc3c2c(c(CCC(C)(C)C(=O)O)n3Cc2ccc(Cl)cc2)S1 (configuration not stated)
IC50 [1]: 23 nM
IC50 [2]: 330 nM

CC1Cc2c(OCc3ccc(-c4ccccc4)cn3)ccc3c2c(c(CC(C)(C)C(=O)O)n3Cc2ccc(Cl)cc2)S1 (configuration not stated)
IC50 [1]: 22 nM

CC1Cc2c(OCc3ccc(-c4ccccc4)cn3)ccc3c2c(c(CC(C)(C)C(=O)O)n3C(=O)c2ccccc2)S1 (configuration not stated)
IC50 [2]: 140 nM
IC50 (Homo sapiens [3]): 60 nM

CC1Cc2c(OCc3cccs3)ccc3c2c(c(CC(C)(C)C(=O)O)n3Cc2ccc(Cl)cc2)S1 (configuration not stated)
IC50 [1]: 28 nM
IC50 [2]: 2000 nM

CC(C)(Cc1c2c3c(c(OCc4ccc(-c5ccccc5)cn4)ccc3n1Cc1ccc(Cl)cc1)CCCS2)C(=O)O
IC50 [1]: 160 nM
inhibition [5]: 20%

CC1Cc2c(OCc3ccc(-c4ccccc4)cn3)ccc3c2c(c(CC(C)(C)CC(N)=O)n3Cc2ccc(Cl)cc2)S1 (configuration not stated)
IC50 (Homo sapiens [3]): 1500 nM

C[C@H]1Cc2c(OCc3ccc(-c4ccccc4)cn3)ccc3c2c(c(CC(C)(C)C(=O)O)n3Cc2ccc(Cl)cc2)[S+]1[O-] (some centres not stated)
IC50 [2]: 8000 nM
IC50 (Homo sapiens [3]): > 2000 nM

CC1Cc2c(OCc3ccc(-c4ccccc4)cn3)ccc3c2c(c(CC(=O)O)n3Cc2ccc(Cl)cc2)S1 (configuration not stated)
IC50 [1]: 37 nM
IC50 [2]: 200 nM

CC1Cc2c(OCc3ccc(-c4ccccc4)cn3)ccc3c2c(c(CC(C)(C)C(=O)O)n3Cc2ccc(S(C)(=O)=O)cc2)S1 (configuration not stated)
IC50 [1]: 420 nM
IC50 [2]: 350 nM

CC1Cc2c(OCc3ccccn3)ccc3c2c(c(CC(C)(C)C(=O)O)n3Cc2ccc(Cl)cc2)S1 (configuration not stated)
IC50 [1]: 35 nM
IC50 [2]: 630 nM
IC50 [6]: 110 nM

CC1Cc2c(OCc3ccc(-c4ccccc4)cn3)ccc3c2c(c(C(=O)O)n3Cc2ccc(Cl)cc2)S1 (configuration not stated)
IC50 [1]: 97 nM
IC50 [2]: 2000 nM

COc1ccc(Cn2c(CC(C)(C)C(=O)O)c3c4c(c(OCc5ccc(-c6ccccc6)cn5)ccc42)CC(C)S3)cc1 (configuration not stated)
IC50 [1]: 28 nM
IC50 [2]: 40 nM

Source: ChEMBL document CHEMBL1126955, “Substituted thiopyrano[2,3,4-c,d]indoles as potent, selective, and orally active inhibitors of 5-lipoxygenase. Synthesis and biological evaluation of L-691,816” (J Med Chem, 1993)
